Test results as given in patent US8710085B2, “Pyrrolidine-1,2-dicarboxamide derivatives” (Novartis AG, priority 2008, dated 2014).
Values belong to the compound of their own block, whether it stands above or below them.

Experiments:
[1] = target: T1, PI3Kα (Homo sapiens, UniProt P42336); test: PI3K KinaseGlo assay, PI3Kα; assay type: biochemical; conditions: KinaseGlo; 10 nM enzyme, 1 μM ATP, 30 mins, room temperature; read-out: PI3Ka/IC50
T1 construct: p110α(21-1068)-His; made in house; host or cells: baculovirus, Tn5 insect cells
T1 sequence (P42336 with tags, fused parts or gaps): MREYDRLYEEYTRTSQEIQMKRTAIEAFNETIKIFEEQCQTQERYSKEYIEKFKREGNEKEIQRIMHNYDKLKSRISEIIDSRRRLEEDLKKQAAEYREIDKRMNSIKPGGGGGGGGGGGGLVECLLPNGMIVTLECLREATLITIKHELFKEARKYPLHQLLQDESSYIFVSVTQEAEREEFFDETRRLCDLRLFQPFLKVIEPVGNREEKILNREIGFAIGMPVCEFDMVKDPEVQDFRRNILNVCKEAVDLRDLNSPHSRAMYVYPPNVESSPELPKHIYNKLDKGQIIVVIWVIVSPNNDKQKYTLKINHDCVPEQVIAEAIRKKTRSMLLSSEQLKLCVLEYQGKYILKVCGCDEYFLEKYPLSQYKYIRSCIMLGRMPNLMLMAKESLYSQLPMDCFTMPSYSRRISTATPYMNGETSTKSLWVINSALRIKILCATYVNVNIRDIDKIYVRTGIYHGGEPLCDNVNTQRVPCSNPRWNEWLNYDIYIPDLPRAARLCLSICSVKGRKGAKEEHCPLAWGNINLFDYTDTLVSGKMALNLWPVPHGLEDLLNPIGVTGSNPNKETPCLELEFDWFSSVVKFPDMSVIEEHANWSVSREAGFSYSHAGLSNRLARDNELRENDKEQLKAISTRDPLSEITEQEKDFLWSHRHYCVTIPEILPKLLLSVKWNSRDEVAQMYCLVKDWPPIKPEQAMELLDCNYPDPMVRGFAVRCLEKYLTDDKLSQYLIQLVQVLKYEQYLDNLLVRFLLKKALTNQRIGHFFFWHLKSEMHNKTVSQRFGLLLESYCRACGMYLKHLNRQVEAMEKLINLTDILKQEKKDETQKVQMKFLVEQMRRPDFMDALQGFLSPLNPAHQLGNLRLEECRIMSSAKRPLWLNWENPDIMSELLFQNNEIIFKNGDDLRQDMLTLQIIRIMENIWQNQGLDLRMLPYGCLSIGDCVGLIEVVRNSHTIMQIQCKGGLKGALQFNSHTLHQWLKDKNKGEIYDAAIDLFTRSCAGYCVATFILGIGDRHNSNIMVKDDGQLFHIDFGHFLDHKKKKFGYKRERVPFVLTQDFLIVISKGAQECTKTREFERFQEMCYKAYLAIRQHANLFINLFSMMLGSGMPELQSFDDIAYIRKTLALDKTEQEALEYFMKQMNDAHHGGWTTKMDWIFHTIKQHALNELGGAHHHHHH

[2] = target: T2, PI3Kβ (Homo sapiens, UniProt P42338); test: PI3K KinaseGlo assay, PI3Kβ; assay type: biochemical; conditions: KinaseGlo; 25 nM enzyme, 1 μM ATP, 30 mins, room temperature; read-out: PI3Kb/IC50
T2 construct: p110β(2-1070)-His; made in house; host or cells: baculovirus, Tn5 insect cells
T2 sequence (P42338 with tags, fused parts or gaps): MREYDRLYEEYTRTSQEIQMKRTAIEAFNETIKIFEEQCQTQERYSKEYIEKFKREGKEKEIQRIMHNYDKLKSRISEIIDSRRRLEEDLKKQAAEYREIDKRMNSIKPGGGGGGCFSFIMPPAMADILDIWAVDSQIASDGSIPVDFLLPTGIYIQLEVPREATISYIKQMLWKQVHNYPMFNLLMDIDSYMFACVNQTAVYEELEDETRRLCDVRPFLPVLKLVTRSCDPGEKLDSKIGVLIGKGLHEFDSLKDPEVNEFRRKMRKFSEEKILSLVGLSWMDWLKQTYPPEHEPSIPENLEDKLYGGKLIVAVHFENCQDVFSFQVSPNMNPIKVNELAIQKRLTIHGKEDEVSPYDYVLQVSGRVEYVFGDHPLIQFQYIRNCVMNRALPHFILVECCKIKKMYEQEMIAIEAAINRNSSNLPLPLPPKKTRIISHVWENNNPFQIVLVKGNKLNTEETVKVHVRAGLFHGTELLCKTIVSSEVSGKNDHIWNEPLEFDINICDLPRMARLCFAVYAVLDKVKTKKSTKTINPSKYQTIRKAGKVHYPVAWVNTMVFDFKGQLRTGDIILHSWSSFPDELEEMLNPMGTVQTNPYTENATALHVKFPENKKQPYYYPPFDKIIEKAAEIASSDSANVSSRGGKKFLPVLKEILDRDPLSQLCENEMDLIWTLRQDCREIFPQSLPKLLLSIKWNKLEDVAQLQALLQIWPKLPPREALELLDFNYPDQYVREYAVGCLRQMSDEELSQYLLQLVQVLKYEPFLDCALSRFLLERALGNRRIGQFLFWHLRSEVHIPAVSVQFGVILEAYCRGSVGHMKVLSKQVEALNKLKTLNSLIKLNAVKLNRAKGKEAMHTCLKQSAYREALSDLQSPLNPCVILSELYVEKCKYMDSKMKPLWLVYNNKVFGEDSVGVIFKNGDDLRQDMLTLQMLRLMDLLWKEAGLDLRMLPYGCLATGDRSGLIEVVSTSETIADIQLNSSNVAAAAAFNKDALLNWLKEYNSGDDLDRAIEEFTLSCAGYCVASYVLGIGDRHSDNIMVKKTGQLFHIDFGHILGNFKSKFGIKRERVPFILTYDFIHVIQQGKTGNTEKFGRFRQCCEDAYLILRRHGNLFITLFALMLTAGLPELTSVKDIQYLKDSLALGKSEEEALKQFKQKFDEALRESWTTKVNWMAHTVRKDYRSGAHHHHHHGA
Procedure: (§1) PI3K KinaseGlo assay: 50 mL of compound dilutions were dispensed onto black 384-well low volume Non Binding Styrene (NBS) plates (Costar Cat. No. NBS#3676). L-a-phosphatidylinositol (PI), provided as 10 mg/ml solution in methanol, was transferred into a glass tube and dried under nitrogen beam. It was then resuspended in 3% OctylGlucoside (OG) by vortexing and stored at 4° C. The KinaseGlo Luminescent Kinase Assay (Promega, Madison/WI, USA) is a homogeneous HTS method of measuring kinase activity by quantifying the amount of ATP remaining in solution following a kinase reaction.
(§2) 5 μL of a mix of PI/OG with the PI3K subtype were added (Table 1). Kinase reactions were started by addition of 5 μl of ATP-mix containing in a final volume 10 μL 10 mM TRIS-HCl pH 7.5, 3 mM MgCl2, 50 mM NaCl, 0.05% CHAPS, 1 mM DTT and 1 μM ATP, and occurred at room temperature. […] The standard was used as a reference compound and included in all assay plates in the form of 16 dilution points in duplicate.
The PI3Kα, PI3Kβ and PI3Kδ constructs are fusion of p85α iSH2 domain and the respective p110 isoforms. The p85α fragment and p110 isoform genes were generated by PCR from first strand cDNA generated by RT-PCR from commercial RNA from placenta, testis and brain as described below. The PI3Kγ construct was obtained from Roger Williams lab, MRC Laboratory of Molecular Biology, Cambridge, UK (November, 2003) and is described (Pacold, Michael E.; Suire, Sabine; Perisic, Olga; Lara-Gonzalez, Samuel; Davis, Colin T.; Walker, Edward H.; Hawkins, Phillip T.; Stephens, Len; Eccleston, John F.; Williams, Roger L. Crystal structure and functional analysis of Ras binding to its effector phosphoinositide 3-kinase gamma. Cell (2000), 103(6), 931-943).
BV949: PCR products for the inter SH2 domain (iSH2) of the p85 PI3Kα, PI13Kβ and PI3Kδ subunit and for the full-length p110β subunit were generated and fused by overlapping PCR. […] The p11013 fragment was obtained by PCR using as template a p110β clone (from unknown source that was sequence verified) using primers gwG130-p04 (5′-[…]-[…]-3′) (SEQ ID NO: 9) which contains linker sequences and the 5′ end of p110β and gwG130-p06 (5′-[…]-[…]-3′) (SEQ ID NO: 10) which contains sequences of the 3′ end of p110-β fused to a Histidine tag. […] This final product was recombined in a Gateway (Invitrogen) […] into the donor vector pDONR201 (Invitrogen) to generate the ORF253 entry clone. This clone was verified by sequencing and used in a Gateway LR reaction (Invitrogen) to transfer the insert into the Gateway adapted pBlueBac4.5 (Invitrogen) vector for generation of the baculovirus expression vector LR280.
(§3) PI3Kα, PI3Kβ and PI3Kγ were purified in two chromatographic steps: immobilized metal affinity chromatography (IMAC) on a Ni sepharose resin (GE Healthcare) and gel filtration utilizing a Superdex 200 26/60 column (GE Healthcare). All buffers were chilled to 4° C. and lysis was performed chilled on ice. Column fractionation was performed at room temperature. All buffers used to purify PI3Kβ contained 0.05% Triton X100 in addition to what is described below.
The lysate was centrifuged at 45,000 g for 30 minutes, and the supernatant was loaded onto a pre-equilibrated IMAC column (3 mL resin/100 mL lysate). […] Protein was eluted with 20 mM Tris-Cl, pH 7.5, 0.5 M NaCl, 5% glycerol, 250 mM imidazole, 1 mM NaF, 0.1 μg/mL OAA, 5 mM BME, 1× Complete protease inhibitor cocktail—EDTA-free. Pertinent fractions were analyzed by SDS-PAGE and pooled accordingly. The protein was further purified by gel filtration on a Superdex 200 26/60 column equilibrated in 20 mM Tris-Cl, pH 7.5, 0.5 M NaCl, 5% glycerol, 1 mM NaF, 5 mM DTT, 1× Complete protease inhibitor cocktail—EDTA-free. Pertinent fractions were analyzed by SDS-PAGE and pooled accordingly.

[3] = target: T3, PI3Kδ (Homo sapiens, UniProt O00329); test: PI3K KinaseGlo assay, PI3Kδ; assay type: biochemical; conditions: 10 nM enzyme, 1 μM ATP, 30 mins, room temperature, read-out: PI3Kd/IC50
T3 construct: p85iSH2(461-568)-GGGGGG-p110δ(2-1044)-His; made in house; host or cells: baculovirus, Tn5 insect cells
T3 sequence (O00329 with tags, fused parts or gaps): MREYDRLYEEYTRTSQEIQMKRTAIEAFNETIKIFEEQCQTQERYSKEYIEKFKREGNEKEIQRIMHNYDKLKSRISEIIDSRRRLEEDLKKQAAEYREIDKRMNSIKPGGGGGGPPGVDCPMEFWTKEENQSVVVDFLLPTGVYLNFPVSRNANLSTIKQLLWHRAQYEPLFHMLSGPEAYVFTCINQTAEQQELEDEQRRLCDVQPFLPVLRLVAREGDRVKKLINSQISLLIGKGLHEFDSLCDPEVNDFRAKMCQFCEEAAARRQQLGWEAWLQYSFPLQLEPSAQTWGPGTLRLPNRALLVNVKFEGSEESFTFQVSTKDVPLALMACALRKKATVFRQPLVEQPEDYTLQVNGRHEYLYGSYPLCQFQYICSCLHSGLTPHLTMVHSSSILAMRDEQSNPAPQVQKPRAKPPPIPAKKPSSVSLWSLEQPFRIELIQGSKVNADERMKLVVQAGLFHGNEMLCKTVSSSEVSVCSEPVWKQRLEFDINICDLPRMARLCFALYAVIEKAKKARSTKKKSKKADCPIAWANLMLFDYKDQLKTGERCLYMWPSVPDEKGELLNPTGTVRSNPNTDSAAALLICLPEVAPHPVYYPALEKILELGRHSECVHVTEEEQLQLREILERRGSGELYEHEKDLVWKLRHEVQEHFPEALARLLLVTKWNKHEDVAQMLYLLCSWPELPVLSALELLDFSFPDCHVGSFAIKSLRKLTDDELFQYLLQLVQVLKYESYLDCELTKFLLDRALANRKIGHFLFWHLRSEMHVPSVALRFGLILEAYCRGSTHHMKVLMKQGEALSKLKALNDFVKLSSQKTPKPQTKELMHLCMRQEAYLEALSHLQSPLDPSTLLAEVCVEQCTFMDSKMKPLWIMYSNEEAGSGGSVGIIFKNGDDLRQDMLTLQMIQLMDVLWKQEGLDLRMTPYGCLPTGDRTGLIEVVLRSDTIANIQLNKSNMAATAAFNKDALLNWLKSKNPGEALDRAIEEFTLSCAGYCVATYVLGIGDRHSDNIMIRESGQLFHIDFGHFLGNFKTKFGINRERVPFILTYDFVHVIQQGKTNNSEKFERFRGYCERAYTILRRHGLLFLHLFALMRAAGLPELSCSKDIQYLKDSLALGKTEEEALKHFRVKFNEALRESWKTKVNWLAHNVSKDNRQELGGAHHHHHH

[4] = target: T4, PI3Kγ (Homo sapiens, UniProt P48736, Q459R); test: PI3K KinaseGlo assay, PI3Kγ; assay type: biochemical; conditions: 150 nM enzyme, 1 μM ATP, 90 mins, room temperature, read-out: PI3Kg/IC50
T4 construct: p110γ(Δ143-[Met144-1102])-His; made in house; host or cells: Tn5 insect cells; construct from Roger Williams lab, MRC LMB
T4 sequence (P48736 with tags, fused parts or gaps Q459R): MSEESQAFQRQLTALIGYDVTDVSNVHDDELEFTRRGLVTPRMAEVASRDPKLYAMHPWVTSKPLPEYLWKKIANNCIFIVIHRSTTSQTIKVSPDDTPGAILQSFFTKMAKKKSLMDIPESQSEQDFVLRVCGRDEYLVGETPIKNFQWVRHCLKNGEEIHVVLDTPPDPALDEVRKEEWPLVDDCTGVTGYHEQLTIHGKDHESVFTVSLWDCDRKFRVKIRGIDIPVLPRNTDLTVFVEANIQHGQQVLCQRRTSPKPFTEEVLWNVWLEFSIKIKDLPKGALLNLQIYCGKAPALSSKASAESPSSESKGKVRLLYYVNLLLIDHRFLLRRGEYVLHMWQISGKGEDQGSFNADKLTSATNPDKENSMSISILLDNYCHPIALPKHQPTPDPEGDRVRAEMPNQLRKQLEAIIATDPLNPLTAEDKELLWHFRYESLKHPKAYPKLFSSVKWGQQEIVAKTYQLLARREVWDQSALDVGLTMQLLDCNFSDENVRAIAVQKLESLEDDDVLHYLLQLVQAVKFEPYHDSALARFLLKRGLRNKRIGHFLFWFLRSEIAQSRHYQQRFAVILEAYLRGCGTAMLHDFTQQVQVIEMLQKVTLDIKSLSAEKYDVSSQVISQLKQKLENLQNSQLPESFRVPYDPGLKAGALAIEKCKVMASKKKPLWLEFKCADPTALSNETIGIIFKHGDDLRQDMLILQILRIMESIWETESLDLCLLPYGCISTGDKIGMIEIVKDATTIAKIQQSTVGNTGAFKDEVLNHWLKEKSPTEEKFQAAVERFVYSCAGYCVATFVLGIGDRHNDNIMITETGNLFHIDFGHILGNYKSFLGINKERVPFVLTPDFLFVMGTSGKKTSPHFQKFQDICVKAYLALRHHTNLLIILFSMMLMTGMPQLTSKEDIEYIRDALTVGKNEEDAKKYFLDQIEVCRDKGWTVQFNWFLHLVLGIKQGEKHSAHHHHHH
Procedure: as §1, with “L-a-phosphatidylinositol” for “PI3K KinaseGlo assay: 50 mL of compound dilutions were dispensed onto black 384-well low volume Non Binding Styrene (NBS) plates (Costar Cat. No. NBS#3676). L-a-phosphatidylinositol”
as §2, with “duplicate. […]” for “duplicate.”
as §3
The lysate was centrifuged at 45,000 g for 30 minutes, and the supernatant was loaded onto a pre-equilibrated IMAC column (3 mL resin/100 mL lysate). […] Protein was eluted with 20 mM Tris-Cl, pH 7.5, 0.5 M NaCl, 5% glycerol, 250 mM imidazole, 1 mM NaF, 0.1 μg/mL OAA, 5 mM BME, 1× Complete protease inhibitor cocktail—EDTA-free. Pertinent fractions were analyzed by SDS-PAGE and pooled accordingly. The protein was further purified by gel filtration on a Superdex 200 26/60 column equilibrated in 20 mM Tris-Cl, pH 7.5, 0.5 M NaCl, 5% glycerol, 1 mM NaF, 5 mM DTT, 1× Complete protease inhibitor cocktail—EDTA-free. Pertinent fractions were analyzed by SDS-PAGE and pooled accordingly. An equal volume of Dialysis Buffer (20 mM Tris-Cl, pH 7.5, 500 mM NaCl, 50% glycerol, 5 mM NaF, 5 mM DTT) was added to the pool and than dialyzed against Dialysis Buffer two changes (one change overnight). Protein was stored at −20° C.

[5] = target: T5, PI3Kalpha wild type (Homo sapiens, UniProt P42336); test: Luciferase luminescence assay (KinaseGlo), PI3Kalpha wild type; assay type: biochemical; conditions: construct BV1075; 1 μM ATP, 15 min preincubation, 1 h, room temperature; read-out: PI3Kalpha wild type IC50s
T5 construct: p110α(21-1068)-His; made in house
T5 sequence (P42336 with tags, fused parts or gaps): as the sequence (P42336 with tags, fused parts or gaps) above
Source text: (§4) Luminescence is a well established readout to determine ATP concentrations and can thus be used to follow the activity of many kinases regardless of their substrate. The KinaseGlo Luminescent Kinase Assay (Promega, Madison/WI, USA) is a homogeneous HTS method of measuring kinase activity by quantifying the amount of ATP remaining in solution following a kinase reaction.

[6] = target: T6, PI3Kalpha E545K (Homo sapiens, UniProt P42336, E545K); test: Luciferase luminescence assay (KinaseGlo), PI3Kalpha E545K; assay type: biochemical; conditions: construct BV1147; 1 μM ATP, 15 min preincubation, 1 h, room temperature; read-out: PI3Kalpha E545K IC50s
T6 construct: made in house; host or cells: baculovirus (vector LR561)
T6 sequence (P42336 with tags, fused parts or gaps E545K): as the sequence (P42336 with tags, fused parts or gaps) above, with G112I, G113S, G119I, G120M, G121V, E646K counted along it
Source text: as §4

[7] = target: T7, PI3Kalpha H1047R (Homo sapiens, UniProt P42336, H1047R); test: Luciferase luminescence assay (KinaseGlo), PI3Kalpha H1047R; assay type: biochemical; conditions: construct BV1097; 1 μM ATP, 15 min preincubation, 1 h, room temperature; read-out: PI3Kalpha H1047R IC50s
T7 construct: made in house; host or cells: baculovirus (vector LR480)
T7 sequence (P42336 with tags, fused parts or gaps H1047R): as the sequence (P42336 with tags, fused parts or gaps) above, with G112I, G113S, G119I, G120M, G121V, H1148R counted along it
Source text: as §4

[8] = In vitro metabolic clearance, human liver microsomes (CYP MetCL-Hu); assay type: in vitro ADME; conditions: human liver microsomes 0.5 mg/mL, test article 1.0 μM, NADPH, 37° C.; read-out: CYP MetCL-Hu/CL(int)
Procedure: (§5) Final test article and protein concentrations, as well as incubation duration, are shown below (Table 1). Low test article concentrations were selected to comply with the assumption that reaction kinetics are evaluated at a concentration less than (or approximately equal to) Km. DMSO is known to have an inhibitory effect on CYP activity. Therefore, the concentration of DMSO in the incubation media has been restricted to 0.01% (v/v) so that interference to the metabolic process is minimized.
(§6) A typical experiment is performed in 96-well format with shaking incubation at 37° C. […] A 30 minutes negative control incubation (minus cofactor) is also performed to assess CYP-unrelated stability issues (eg, chemical instability, CYP-independent metabolism).
In general, TA's in 10 mM DMSO are diluted 1:1000 into 0.6% ACN (v/v) in DiH20 to 10 μM. […] For evaluation of UGT-mediated metabolism, the suspension may be first pretreated by 5 min incubation on ice with alamethicin (25 μg/mg of microsomal protein). TA (35 μL) is added to 140 μL of the microsomal suspensions for 175 μL enzymesubstrate mixture. […] The 30 min negative control incubation is processed by combining 25 μL of enzyme.substrate mixture with an equal volume of 50 mM KPi containing 4 mM MgCl2. Following a 30 minute incubation at 37° C., the mix is quenched by adding 50 μL of ACN containing the MS internal standard (2 μM alprenolol). The T=0 min time point is processed by combining 25 μL of enzyme.substrate mixture directly with 50 μL of ACN containing the MS internal standard (2 μM alprenolol). 25 μL of the cofactor solution is added (2 mM NADPH in 50 mM KPi plus 4 mM MgCl2; optionally including 2 mM UDPGA for CYP+UGT assays) to simulate the complete quenched reaction mixture.
(§7) The bulk reactions for the remaining time points are initiated by addition of 125 μL of cofactor solution (2 mM NADPH in 50 mM KPi plus 4 mM MgCl2) to the remaining 125 μL of enzyme.substrate mixture. […] All the samples are centrifuged at ˜3400×g at 4° C. for 10 min and the supernatants are analyzed by LC-MS/MS for quantitation of remaining TA. […]

[9] = In vitro metabolic clearance, rat liver microsomes (CYP MetCL-Ra); assay type: in vitro ADME; conditions: rat liver microsomes 0.5 mg/mL, test article 1.0 μM, NADPH, 37° C.; read-out: CYP MetCL-Ra/CL(int)
Procedure: as §5, §6
In general, TA's in 10 mM DMSO are diluted 1:1000 into 0.6% ACN (v/v) in DiH20 to 10 μM. […] For evaluation of UGT-mediated metabolism, the suspension may be first pretreated by 5 min incubation on ice with alamethicin (25 μg/mg of microsomal protein). […]
as §7

- IC50 [1]: 44 nM
- IC50 [2]: 3900 nM
- IC50 [3]: 648 nM
- IC50 [4]: 2050 nM
- IC50 [5]: 8.2 nM
- IC50 [6]: 6.7 nM
- IC50 [7]: 7.7 nM
SMILES: Cc1nc(NC(=O)N2CCC[C@H]2C(N)=O)sc1-c1ccnc(C2(C)CC2)c1 [Example 5, (S)-Pyrrolidine-1,2-dicarboxylic acid 2-amide 1-({4-methyl-5-[2-(1-methylcyclopropyl)-pyridin-4-yl]-thiazol-2-yl}-amide)]

- microsomal CLint at 1 μM [8]: 33 µL/min/mg
SMILES: Cc1nc(NC(=O)N2CCC[C@H]2C(N)=O)sc1-c1ccnc(C(C)(C)C(F)(F)F)c1 [Example 15, (S)-Pyrrolidine-1,2-dicarboxylic acid 2-amide 1-({4-methyl-5-[2-(2,2,2-trifluoro-1,1-dimethyl-ethyl)-pyridin-4-yl]-thiazol-2-yl}-amide)]

- microsomal CLint at 1 μM [9]: 29 µL/min/mg
- microsomal CLint at 1 μM [8]: 27 µL/min/mg
SMILES: Cc1nc(NC(=O)N2CCC[C@H]2C(N)=O)sc1-c1ccnc(C(C)(CF)CF)c1 [Example 55, (S)-Pyrrolidine-1,2-dicarboxylic acid 2-amide 1-({5-[2-(2-fluoro-1-fluoromethyl-1-methyl-ethyl)-pyridin-4-yl]-4-methyl-thiazol-2-yl}-amide)]

SMILES: [2H]C([2H])([2H])C(c1nccc(-c2sc(NC(=O)N3CCC[C@H]3C(N)=O)nc2C)n1)(C([2H])([2H])[2H])C([2H])([2H])[2H] [Example 61, (S)-Pyrrolidine-1,2-dicarboxylic acid 2-amide 1-{[5-(2-d9-tert-butyl-pyrimidin-4-yl)-4-methyl-thiazol-2-yl]-amide}]
- microsomal CLint at 1 μM [9]: 22 µL/min/mg
- microsomal CLint at 1 μM [8]: 19 µL/min/mg
